{
  "source": "patent US8865899B2",
  "about": "(AstraZeneca AB, priority 2006, dated 2014)",
  "origin": "cited, not measured here",
  "key": {"VEGF RTK": {"test_system": "VEGF RTK", "details": "statement in words, background"}, "tumour models": {"test_system": "tumour models", "details": "once-daily oral administration; Wedge et al, Proc. Am. Assoc. Canc. Res. 2001; 42: abstract 3126"}},
  "data": [
    {"smiles": "COc1cc2c(Nc3ccc(Br)cc3F)ncnc2cc1OCC1CCN(C)CC1", "note": "[ZD6474, 4-(4-bromo-2-fluoroanilino)-6-methoxy-7-(1-methylpiperidin-4-ylmethoxy)quinazoline]", "values": [
      {"measurement": "inhibition of VEGF RTK", "setting": "VEGF RTK", "value": "potent inhibitor"},
      {"measurement": "anti-tumour activity", "setting": "tumour models", "value": "broad-spectrum anti-tumour activity"}
    ]}
  ]
}
